Measured values from patent US5081232A, “Complexes of TC99m radiopharmaceuticals” (priority 1987, dated 1992).

Assay: Animal biodistribution (in vivo, i.v. injection)
Conditions: rats; for Blood, % injected dose/organ: blood taken as 5.8% of body weight; for Muscle, % injected dose/organ: muscle taken as 43% of body weight
Procedure: 0.1 ml Tc^99m prep was injected i.v. into a lateral tail vein of 6 anaesthetised rats.
At 2 minutes and 60 minutes post injection, 3 rats were sacrificed by decapitation, bled from the neck and dissected. The following organs were removed at dissection: kidney, bladder(+urine), lung, liver, spleen, stomach, small intestine, large intestine, brain (weighed), heart (weighed), thyroid, and samples of blood (weighed) and muscle (weighed, the residual carcass and the tail (injection site). Subsequently samples were counted in an automatic twin crystal gamma counter.
Percentage biodistribution of injected material was calculated (after correction for background) for all organs using the formula: [formula]
Since only samples of muscle and blood were taken, the percentage in these tissues was calculated assuming blood and muscle to represent 5.8 and 43% of total animal weight respectively using the formula: [formula] where CF= 0.058 for blood

| SMILES | Brain, % injected dose/organ (2 min p.i.) [% injected dose/organ] | Heart, % injected dose/organ (2 min p.i.) [% injected dose/organ] | Heart/Blood Counts/Gram ratio (2 min p.i.) | Heart/Liver Counts/Gram ratio (2 min p.i.) | Heart/Muscle Counts/Gram ratio (2 min p.i.) | Kidney + Urine, % injected dose/organ (2 min p.i.) [% injected dose/organ] | Liver, % injected dose/organ (2 min p.i.) [% injected dose/organ] | Lung, % injected dose/organ (2 min p.i.) [% injected dose/organ] | Blood, % injected dose/organ (2 min p.i.) [% injected dose/organ] | Muscle, % injected dose/organ (2 min p.i.) [% injected dose/organ] | Brain, % injected dose/organ (60 min p.i.) [% injected dose/organ] | Heart, % injected dose/organ (60 min p.i.) [% injected dose/organ] | Heart/Blood Counts/Gram ratio (60 min p.i.) | Heart/Liver Counts/Gram ratio (60 min p.i.) | Heart/Muscle Counts/Gram ratio (60 min p.i.) | Kidney + Urine, % injected dose/organ (60 min p.i.) [% injected dose/organ] | Liver, % injected dose/organ (60 min p.i.) [% injected dose/organ] | Lung, % injected dose/organ (60 min p.i.) [% injected dose/organ] | Blood, % injected dose/organ (60 min p.i.) [% injected dose/organ] | Muscle, % injected dose/organ (60 min p.i.) [% injected dose/organ] | further results |
| --- | --- | --- | --- | --- | --- | --- | --- | --- | --- | --- | --- | --- | --- | --- | --- | --- | --- | --- | --- | --- | --- |
| O=[N][99Tc-]([Cl])([Cl])([Cl])[Cl] [[^99m TcNOCl4]^-] | 0.09 | 0.55 | 0.41 | 1.37 | 2.14 | 6.26 | 5.31 | 2.09 | 20.32 | 30.35 | 0.05 | 0.42 | 0.43 | 0.98 | 1.66 | 14.61 | 4.59 | 1.71 | 14.94 | 30.41 | Liver + GI, % injected dose/organ (2 min p.i.): 13.49 % injected dose/organ; Liver + GI, % injected dose/organ (60 min p.i.): 11.89 % injected dose/organ |
| O=[N][Tc+][Cl].[C-]#[N+]C(C)(C)C.[C-]#[N+]C(C)(C)C.[C-]#[N+]C(C)(C)C.[C-]#[N+]C(C)(C)C [[^99 Tc(NO)Cl(t-BuCN)4]^+] | 0.04 | 1.09 | 6.19 | 2.58 | – | 6.86 | 5.82 | 0.64 | 0.40 | 21.45 | 0.04 | 1.37 | 8.98 | 2.97 | – | 8.15 | 5.89 | 0.12 | – | 18.30 | Heart/Lung Counts/Gram ratio (2 min p.i.): 3.34; Heart/Lung Counts/Gram ratio (60 min p.i.): 26.02 |
| O=[N][99Tc]1([Cl])([Cl])([Cl])[N]2C=CC=c3ccc4c(c32)[N]1C=CC=4 [[^99 Tc(NO)(1,10 phen)Cl3]°] | 0.08 | 0.40 | 1.59 | 35.14 | 1.99 | 1.97 | 0.16 | 0.67 | 3.98 | 22.83 | 0.04 | 0.29 | 1.36 | 10.63 | 4.68 | 16.05 | 0.46 | 0.23 | 3.49 | 17.02 | Heart/Lung Counts/Gram ratio (2 min p.i.): 1.55; Heart/Lung Counts/Gram ratio (60 min p.i.): 2.57 |
| O=[N][99Tc]([Cl])([Cl])[Cl].c1ccc(-c2ccccn2)nc1 [[^99 Tc(NO)Cl3 (Bipy)], bipyridyltrichloronitrosyltechnetium (11)] | 0.06 | 0.32 | 0.99 | 1.31 | 1.69 | 11.30 | 3.43 | 0.45 | 7.17 | 24.17 | 0.04 | 0.30 | 2.12 | 1.09 | 2.02 | 22.96 | 3.35 | 0.10 | 2.02 | 18.95 | Heart/Lung Counts/Gram ratio (2 min p.i.): 1.30; Liver + GI, % injected dose/organ (2 min p.i.): 0.00 % injected dose/organ; Heart/Lung Counts/Gram ratio (60 min p.i.): 4.13; Liver + GI, % injected dose/organ (60 min p.i.): 0.00 % injected dose/organ |
| CP(C)CCP(C)C.CP(C)CCP(C)C.N#[O+].[99Tc+].[Cl-].[Cl-] | 0.04 | 0.46 | 0.68 | 0.38 | 1.85 | 10.18 | 15.03 | 1.09 | 9.96 | 27.00 | 0.01 | 0.30 | 4.48 | 1.13 | 2.34 | 42.60 | 3.14 | 0.33 | 1.02 | 14.10 | Heart/Lung Counts/Gram ratio (2 min p.i.): 0.71; Liver + GI, % injected dose/organ (2 min p.i.): 26.33 % injected dose/organ; Heart/Lung Counts/Gram ratio (60 min p.i.): 1.53; Liver + GI, % injected dose/organ (60 min p.i.): 34.70 % injected dose/organ |
